Like-named read-outs stand apart in the source and are kept apart here.
Assays:
Type in all cases: binding
PRKD3 = target: T1, PRKD3 (Homo sapiens, UniProt O94806); assay: KINOMEscan PRKD3; conditions: kinase PRKD3; NEW KINOMEscan
T1 sequence (O94806 1-890): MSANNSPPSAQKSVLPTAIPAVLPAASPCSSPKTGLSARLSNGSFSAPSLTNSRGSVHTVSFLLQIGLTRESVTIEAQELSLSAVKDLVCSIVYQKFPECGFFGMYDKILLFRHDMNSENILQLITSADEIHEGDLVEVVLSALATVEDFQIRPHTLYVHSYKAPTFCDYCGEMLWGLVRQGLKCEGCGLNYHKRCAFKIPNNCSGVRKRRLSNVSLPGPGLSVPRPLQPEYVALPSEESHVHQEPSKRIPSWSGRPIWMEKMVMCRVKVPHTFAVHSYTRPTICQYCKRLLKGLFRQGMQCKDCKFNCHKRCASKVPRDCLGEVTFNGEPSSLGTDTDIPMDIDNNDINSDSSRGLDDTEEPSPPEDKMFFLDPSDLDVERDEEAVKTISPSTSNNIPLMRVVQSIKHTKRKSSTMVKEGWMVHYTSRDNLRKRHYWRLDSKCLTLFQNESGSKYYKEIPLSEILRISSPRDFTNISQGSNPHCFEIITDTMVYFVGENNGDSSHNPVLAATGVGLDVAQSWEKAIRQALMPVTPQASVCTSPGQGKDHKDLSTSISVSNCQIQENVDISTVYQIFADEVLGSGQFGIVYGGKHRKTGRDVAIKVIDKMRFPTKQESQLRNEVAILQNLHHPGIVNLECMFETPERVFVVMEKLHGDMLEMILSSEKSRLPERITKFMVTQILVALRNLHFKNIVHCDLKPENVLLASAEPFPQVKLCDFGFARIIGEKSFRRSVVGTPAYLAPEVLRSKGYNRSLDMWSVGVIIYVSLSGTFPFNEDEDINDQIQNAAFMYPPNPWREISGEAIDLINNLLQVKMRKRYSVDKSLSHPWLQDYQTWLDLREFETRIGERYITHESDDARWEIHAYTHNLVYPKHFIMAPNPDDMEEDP

TGFBR1 = target: T2, TGFBR1 (Homo sapiens, UniProt P36897); assay: KINOMEscan TGFBR1
T2 sequence (P36897 34-503): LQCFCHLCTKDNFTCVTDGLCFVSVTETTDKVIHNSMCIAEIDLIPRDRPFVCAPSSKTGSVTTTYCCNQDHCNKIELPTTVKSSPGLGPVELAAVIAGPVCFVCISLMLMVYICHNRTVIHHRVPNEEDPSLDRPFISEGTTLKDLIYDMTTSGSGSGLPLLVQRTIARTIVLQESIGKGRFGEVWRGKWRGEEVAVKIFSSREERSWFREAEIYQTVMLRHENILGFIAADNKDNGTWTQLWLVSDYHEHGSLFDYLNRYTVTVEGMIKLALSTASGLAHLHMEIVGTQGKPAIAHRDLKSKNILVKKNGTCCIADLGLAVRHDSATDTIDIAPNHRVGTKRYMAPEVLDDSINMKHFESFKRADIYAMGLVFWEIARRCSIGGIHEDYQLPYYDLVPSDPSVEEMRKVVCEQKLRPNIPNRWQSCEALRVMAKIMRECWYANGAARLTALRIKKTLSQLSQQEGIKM

PRKD1 = target: T3, PRKD1 (Homo sapiens, UniProt Q15139); assay: KINOMEscan PRKD1; conditions: NEW KINOMEscan
T3 sequence (Q15139 1-912): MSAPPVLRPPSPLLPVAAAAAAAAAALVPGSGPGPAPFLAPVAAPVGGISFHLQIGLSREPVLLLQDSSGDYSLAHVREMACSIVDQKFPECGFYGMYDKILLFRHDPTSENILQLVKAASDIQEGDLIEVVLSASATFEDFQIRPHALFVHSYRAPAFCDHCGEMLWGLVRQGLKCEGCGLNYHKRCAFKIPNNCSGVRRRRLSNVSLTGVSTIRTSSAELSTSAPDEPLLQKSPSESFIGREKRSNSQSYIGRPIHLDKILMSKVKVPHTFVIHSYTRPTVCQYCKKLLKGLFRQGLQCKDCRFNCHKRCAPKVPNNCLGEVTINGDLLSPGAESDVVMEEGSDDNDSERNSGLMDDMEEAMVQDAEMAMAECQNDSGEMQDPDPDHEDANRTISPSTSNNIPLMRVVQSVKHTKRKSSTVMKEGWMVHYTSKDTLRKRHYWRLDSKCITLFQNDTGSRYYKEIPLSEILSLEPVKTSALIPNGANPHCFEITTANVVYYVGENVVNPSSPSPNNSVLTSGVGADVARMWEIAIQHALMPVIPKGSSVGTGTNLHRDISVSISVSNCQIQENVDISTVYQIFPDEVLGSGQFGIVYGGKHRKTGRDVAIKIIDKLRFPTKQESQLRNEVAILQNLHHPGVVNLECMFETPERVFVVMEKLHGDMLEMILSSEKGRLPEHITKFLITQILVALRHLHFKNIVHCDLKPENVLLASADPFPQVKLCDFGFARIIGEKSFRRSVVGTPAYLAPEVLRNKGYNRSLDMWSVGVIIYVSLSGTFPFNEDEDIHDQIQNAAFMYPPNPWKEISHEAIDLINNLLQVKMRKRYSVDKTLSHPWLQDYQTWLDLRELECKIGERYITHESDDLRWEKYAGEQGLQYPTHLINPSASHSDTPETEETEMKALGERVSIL

ACVR1B = target: T4, ACVR1B (Homo sapiens, UniProt P36896); assay: KINOMEscan ACVR1B
T4 sequence (P36896 24-505): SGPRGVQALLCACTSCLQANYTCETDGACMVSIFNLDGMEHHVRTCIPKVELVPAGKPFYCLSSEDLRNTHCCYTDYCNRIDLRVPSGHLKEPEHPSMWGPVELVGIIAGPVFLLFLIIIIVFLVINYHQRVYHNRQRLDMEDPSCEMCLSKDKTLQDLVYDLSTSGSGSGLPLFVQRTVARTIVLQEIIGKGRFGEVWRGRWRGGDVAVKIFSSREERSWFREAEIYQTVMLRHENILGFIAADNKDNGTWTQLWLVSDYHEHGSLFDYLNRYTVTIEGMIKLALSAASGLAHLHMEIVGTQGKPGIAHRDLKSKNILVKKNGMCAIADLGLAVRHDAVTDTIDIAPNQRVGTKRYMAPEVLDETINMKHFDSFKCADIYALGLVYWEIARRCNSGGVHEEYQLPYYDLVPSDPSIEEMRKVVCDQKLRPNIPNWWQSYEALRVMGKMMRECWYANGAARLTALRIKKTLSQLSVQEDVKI

CSNK1D = CSNK1D (Homo sapiens, UniProt P48730); assay: KINOMEscan CSNK1D; conditions: NEW KINOMEscan
CDC42BPG/DMPK2 = CDC42BPG/DMPK2 (Homo sapiens, UniProt Q6DT37)
CDC42BPB/MRCKB = CDC42BPB/MRCKB (Homo sapiens, UniProt Q9Y5S2)
CDC42BPB/MRCKB, sequence (Q9Y5S2 whole entry): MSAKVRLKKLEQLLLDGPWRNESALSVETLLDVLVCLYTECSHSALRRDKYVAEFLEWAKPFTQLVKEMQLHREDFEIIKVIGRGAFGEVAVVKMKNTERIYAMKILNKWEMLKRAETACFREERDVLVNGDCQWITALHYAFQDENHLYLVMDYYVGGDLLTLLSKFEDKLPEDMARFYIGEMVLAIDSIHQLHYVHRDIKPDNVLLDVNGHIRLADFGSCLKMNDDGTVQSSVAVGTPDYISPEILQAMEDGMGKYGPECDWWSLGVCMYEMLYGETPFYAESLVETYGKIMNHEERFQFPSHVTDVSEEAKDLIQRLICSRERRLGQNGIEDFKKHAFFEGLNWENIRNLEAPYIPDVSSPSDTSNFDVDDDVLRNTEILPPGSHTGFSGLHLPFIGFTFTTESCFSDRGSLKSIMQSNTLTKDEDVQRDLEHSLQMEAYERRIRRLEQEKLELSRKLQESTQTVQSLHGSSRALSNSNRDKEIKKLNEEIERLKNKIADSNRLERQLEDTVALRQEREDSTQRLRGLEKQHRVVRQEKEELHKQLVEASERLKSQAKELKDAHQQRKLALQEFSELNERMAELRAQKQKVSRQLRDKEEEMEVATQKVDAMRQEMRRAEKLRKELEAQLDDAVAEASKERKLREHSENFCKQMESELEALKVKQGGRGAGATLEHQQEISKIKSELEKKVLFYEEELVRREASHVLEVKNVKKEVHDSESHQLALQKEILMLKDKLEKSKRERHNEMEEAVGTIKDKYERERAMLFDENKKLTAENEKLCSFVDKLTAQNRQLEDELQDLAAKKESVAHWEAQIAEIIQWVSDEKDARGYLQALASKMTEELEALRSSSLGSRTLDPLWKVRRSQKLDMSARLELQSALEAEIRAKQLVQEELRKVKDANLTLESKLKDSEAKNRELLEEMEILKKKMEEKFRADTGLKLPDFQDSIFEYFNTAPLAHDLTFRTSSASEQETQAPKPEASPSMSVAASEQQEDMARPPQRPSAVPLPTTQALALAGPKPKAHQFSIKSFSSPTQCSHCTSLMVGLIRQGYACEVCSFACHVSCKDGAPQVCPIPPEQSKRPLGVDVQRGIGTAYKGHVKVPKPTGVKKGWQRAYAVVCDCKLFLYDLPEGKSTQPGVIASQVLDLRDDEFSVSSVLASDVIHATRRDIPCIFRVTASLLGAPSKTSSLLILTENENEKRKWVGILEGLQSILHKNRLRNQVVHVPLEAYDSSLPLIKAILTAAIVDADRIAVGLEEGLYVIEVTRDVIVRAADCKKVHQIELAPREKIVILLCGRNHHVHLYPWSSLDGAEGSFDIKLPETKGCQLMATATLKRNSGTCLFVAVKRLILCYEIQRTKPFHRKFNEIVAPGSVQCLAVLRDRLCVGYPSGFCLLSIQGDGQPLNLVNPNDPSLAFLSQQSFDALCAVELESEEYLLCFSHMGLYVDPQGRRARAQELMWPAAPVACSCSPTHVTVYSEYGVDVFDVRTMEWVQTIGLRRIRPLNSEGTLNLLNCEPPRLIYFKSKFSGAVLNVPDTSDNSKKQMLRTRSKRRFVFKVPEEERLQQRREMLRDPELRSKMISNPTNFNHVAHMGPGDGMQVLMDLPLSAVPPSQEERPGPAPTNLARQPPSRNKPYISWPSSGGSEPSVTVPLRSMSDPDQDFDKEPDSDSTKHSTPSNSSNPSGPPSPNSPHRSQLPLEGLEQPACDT

CDC42BPG/DMPK2, sequence (Q6DT37 whole entry): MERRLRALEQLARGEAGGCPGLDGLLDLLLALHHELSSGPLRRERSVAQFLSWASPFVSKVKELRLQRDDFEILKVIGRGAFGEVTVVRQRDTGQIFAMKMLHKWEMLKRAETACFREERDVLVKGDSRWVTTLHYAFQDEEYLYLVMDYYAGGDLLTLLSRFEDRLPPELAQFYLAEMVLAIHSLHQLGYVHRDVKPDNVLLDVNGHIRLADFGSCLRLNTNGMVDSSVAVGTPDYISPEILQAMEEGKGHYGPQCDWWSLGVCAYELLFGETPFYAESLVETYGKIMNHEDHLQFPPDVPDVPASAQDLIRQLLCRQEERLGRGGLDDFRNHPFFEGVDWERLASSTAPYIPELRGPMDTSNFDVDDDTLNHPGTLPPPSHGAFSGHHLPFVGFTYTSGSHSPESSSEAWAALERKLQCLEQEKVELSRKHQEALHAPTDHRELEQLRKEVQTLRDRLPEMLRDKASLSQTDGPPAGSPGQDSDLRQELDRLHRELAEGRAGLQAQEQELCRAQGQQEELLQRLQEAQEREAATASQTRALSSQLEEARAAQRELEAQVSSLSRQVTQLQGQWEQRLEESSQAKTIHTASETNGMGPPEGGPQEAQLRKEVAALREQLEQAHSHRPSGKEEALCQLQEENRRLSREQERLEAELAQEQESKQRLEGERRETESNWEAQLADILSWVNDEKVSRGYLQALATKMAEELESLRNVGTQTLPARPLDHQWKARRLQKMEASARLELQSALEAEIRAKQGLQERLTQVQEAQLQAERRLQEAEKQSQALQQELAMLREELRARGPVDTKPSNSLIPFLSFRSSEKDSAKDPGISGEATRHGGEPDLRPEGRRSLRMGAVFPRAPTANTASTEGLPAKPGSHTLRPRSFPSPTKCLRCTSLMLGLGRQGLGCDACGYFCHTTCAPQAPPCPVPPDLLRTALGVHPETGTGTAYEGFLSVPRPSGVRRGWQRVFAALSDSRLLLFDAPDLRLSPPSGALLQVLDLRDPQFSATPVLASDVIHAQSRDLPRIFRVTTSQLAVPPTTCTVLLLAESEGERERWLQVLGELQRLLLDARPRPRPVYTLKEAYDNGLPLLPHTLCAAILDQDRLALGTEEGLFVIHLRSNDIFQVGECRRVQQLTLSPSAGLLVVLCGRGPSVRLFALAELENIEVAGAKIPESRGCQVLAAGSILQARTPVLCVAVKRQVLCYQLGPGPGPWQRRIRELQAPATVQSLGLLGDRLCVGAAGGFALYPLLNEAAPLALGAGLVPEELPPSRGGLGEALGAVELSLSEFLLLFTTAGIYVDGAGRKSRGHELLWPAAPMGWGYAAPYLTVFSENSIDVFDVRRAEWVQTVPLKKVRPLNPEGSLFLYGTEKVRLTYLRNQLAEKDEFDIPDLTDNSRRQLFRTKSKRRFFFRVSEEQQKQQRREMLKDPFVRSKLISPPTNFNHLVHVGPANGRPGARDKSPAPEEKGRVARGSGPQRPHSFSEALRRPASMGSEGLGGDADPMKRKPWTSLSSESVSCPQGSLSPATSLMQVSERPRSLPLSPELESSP
CSNK1D, sequence (P48730 whole entry): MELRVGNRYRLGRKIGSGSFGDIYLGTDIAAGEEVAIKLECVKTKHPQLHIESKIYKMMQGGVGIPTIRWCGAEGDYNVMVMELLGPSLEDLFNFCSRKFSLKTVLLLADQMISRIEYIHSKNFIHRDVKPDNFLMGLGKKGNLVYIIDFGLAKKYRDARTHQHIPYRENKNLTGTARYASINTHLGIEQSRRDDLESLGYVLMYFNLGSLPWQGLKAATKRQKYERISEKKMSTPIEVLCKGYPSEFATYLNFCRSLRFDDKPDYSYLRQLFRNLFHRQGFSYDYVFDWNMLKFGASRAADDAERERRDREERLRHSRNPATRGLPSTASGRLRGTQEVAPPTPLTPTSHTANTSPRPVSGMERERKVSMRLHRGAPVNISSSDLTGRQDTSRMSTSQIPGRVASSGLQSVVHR

| SMILES | KINOMEscan PRKD3 (PRKD3) | KINOMEscan TGFBR1 (TGFBR1) | KINOMEscan PRKD1 (PRKD1) | KINOMEscan ACVR1B (ACVR1B) | KINOMEscan CSNK1D (CSNK1D) | KINOMEscan CDC42BPG/DMPK2 (CDC42BPG/DMPK2) | KINOMEscan CDC42BPB/MRCKB (CDC42BPB/MRCKB) | KINOMEscan TGFBR1 (TGFBR1; TGFBR1, NEW KINOMEscan) | KINOMEscan ACVR1B (ACVR1B; ACVR1B, NEW KINOMEscan) |
| --- | --- | --- | --- | --- | --- | --- | --- | --- | --- |
| Cc1cccc(-c2nc(Nc3ccc4nn(C)cc4c3)c3ccccc3n2)n1 [NK167] | 39 | 21 | 0 | 20 | 4 | 0 | 0 |  |  |
| Cc1cccc(-c2nc(N(C)c3ccc4ncsc4c3)c3ccccc3n2)n1 [NK-161] | 74 |  | 46 |  | 11 | 21 | 5 | 12 | 28 |

Source: publication PMC9851200, “Multiparameter phenotypic screening for endogenous TFEB and TFE3 translocation identifies novel chemical series modulating lysosome function” (Autophagy, 2022)
